Test results reported in publication PMC13210772, “Dual FLT3/MAPK14 Proteolysis-Targeting Chimera (PROTAC) Induces Potent Acute Myeloid Leukemia Cell Death” (Pharmaceuticals, 2026).

What was measured:
Plasma stability = format: in vitro ADME
Description: Another aspect we tested for selected PROTACs, and the reference inhibitor is the stability in human plasma. PROTACs MA190 and MA191 and their parent inhibitor MA68 (10 μM, final DMSO concentration 1%) were incubated with 100 μL pooled human plasma at 37 °C. The remaining amount of the incubated compound was tested for 6 h using a HPLC method. […] The further detailed biological characterization of MA191 and the successful in vivo testing can be found in a study submitted in parallel.
To determine plasma stability, 10 μM of the given compound was incubated with 100 μL human pooled plasma for 5, 10, 30, 60, 120 and 360 min at 37 °C. The reactions were stopped by adding 300 μL of acetonitrile with subsequent plasma proteins sedimentation. The samples were subjected to ultra-centrifugation (5 min, 10,000 RPM/g) using modified PES 30K low protein binding centrifugal filter. The filtrate was then analyzed using HPLC to determine the available concentration of the compounds and also to determine and quantify potential degradation products. As HPLC system a LiChrosorb® RP-18 (5 μm) 100–4.6 column from the manufacturer Merck, two LC-10AD pumps, a SPD-M10A VP PDA detector, and a SIL HT auto-sampler were used (all from the manufacturer Shimadzu, Kyoto, Japan). As mobile phase a gradient with […] composed of methanol/water/trifluoroacetic acid at a flow rate of 1 mL/min. UV absorbance was measured at 254 nm was used.

in vitro = conditions: CD-1, mouse, liver microsomes, pH 7.4
[1] = Metabolic stability in liver microsomes
FLT3-ITD [2] = test: FLT3-ITD degradation, immunoblot in MOLM-13 cells; format: cell-based, human; conditions: 50 nM, 24 h
From the text: To verify that MA190 and MA191 trigger the depletion of FLT3-ITD and a breakdown of its downstream signaling in both MV4-11 and MOLM-13 cells, we used immunoblotting. Furthermore, we evaluated if the elimination of FLT3-ITD is inherent to the PROTAC activities of MA190 and MA191, or due to their kinase inhibitor moieties using MA68. […] The loss of FLT3-ITD was linked to a reduction of STAT5 and AKT, their phosphorylation, and the auto-phosphorylation of FLT3-ITD in both AML cell systems (Figure 4f,g).
(§1) Figure 4 Biological and biochemical characterization of the FLT3 PROTACs. (a) MV4-11 cells were incubated for 24 h with 50 nM of the indicated compounds. Immunoblotting was performed for the indicated proteins and their phosphorylation (p-) or cleavage (cl.; indicated by arrows); β-actin was used to ensure equal sample loading. (b) MV4-11 cells were treated with the indicated agents and analyzed for early and late apoptosis by flow cytometry. (c) Same as in (b) but treatment for 72 h. (d) MOLM-13 cells were treated with the indicated agents and analyzed for early and late apoptosis by flow cytometry. […] Immunoblots show the expression of the indicated proteins and their phosphorylation (p-); β-actin was used to ensure equal sample loading. All immunoblots show data from at least two independent repetitions and flow cytometry analyses were conducted thrice independently; * […], ** p < 0.01, *** p < 0.001, **** p < 0.0001.

HEK293 cells = test: Cytotoxicity in HEK293 cells (Alamar Blue); conditions: 50 µM
FLT3-ITD [3] = test: KINOMEscan binding assay
Summary of the method: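 Competition binding: DNA-tagged FLT3-ITD (phage-expressed in E. coli BL21 host or produced in HEK-293) incubated with immobilized ligand beads and compound (0.9% DMSO final). Kinase retained on beads eluted and quantified by qPCR.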

MOLM-13 cells = test: Apoptosis by flow cytometry (annexin-V/propidium iodine); format: cell-based, human; conditions: 72 h
Description: To further assess the biological relevance of these findings, we treated MV4-11 cells with the new PROTACs, included MA49 as control, and analyzed them for early (annexin-V positive) and late apoptosis (annexin-V and propidium iodine positive) by flow cytometry. Cells in late apoptosis are more severely damaged than cells in early apoptosis. […] After 72 h, all degraders evoked equal levels of apoptosis (Figure 4c). We additionally tested these degraders in MOLM-13 cells which carry FLT3-ITD and FLT3 from a patient with AML after initial myelodysplastic syndrome.
as §1

Q: For Cc1ncsc1-c1ccc([C@H](C)NC(=O)[C@@H]2C[C@@H](O)CN2C(=O)[C@@H](NC(=O)[C@H]2CC[C@H](C(=O)N3CCN(CCNC(=O)c4cc(Oc5ccc(NC(=O)Nc6cc(C(C)(C)C)on6)cc5)ccn4)CC3)CC2)C(C)(C)C)cc1 [MA191, 4-(4-(3-(5-(tert-Butyl)isoxazol-3-yl)ureido)phenoxy)-N-(2-(4-(trans-4-(((S)-1-((2S,4R)-4-hydroxy-2-(((S)-1-(4-(4-methylthiazol-5-yl)phenyl)ethyl)carbamoyl)pyrrolidin-1-yl)-3,3-dimethyl-1-oxobutan-2-yl)carbamoyl)cyclohexanecarbonyl)piperazin-1-yl)ethyl)picolinamide], which “plasma stability” value (Plasma stability; human plasma, 6 h) is on record?
A: high plasma stability

Q: What about the remaining at 0 h, 10 µM (Plasma stability; pooled human plasma, 37 °C, 10 μM, 0 min, read-out: 0 min—Compound Remaining %) of the same compound?
A: 100%

Q: And the remaining at 10 min, 10 µM (Plasma stability; pooled human plasma, 37 °C, 10 μM, 10 min, read-out: 10 min—Compound Remaining %)?
A: 95.9 ± 9.4%

Q: And the remaining at 0.5 h, 10 µM (Plasma stability; pooled human plasma, 37 °C, 10 μM, 30 min, read-out: 30 min—Compound Remaining %)?
A: 93.3 ± 4.2%

Q: And the remaining at 1 h, 10 µM (Plasma stability; pooled human plasma, 37 °C, 10 μM, 60 min, read-out: 60 min—Compound Remaining %)?
A: 92.6 ± 5.7%

Q: What about the remaining at 2 h, 10 µM (Plasma stability; pooled human plasma, 37 °C, 10 μM, 120 min, read-out: 120 min—Compound Remaining %) of the same compound?
A: 94.9 ± 1.8%

Q: And the remaining at 6 h, 10 µM (Plasma stability; pooled human plasma, 37 °C, 10 μM, 360 min, read-out: 360 min—Compound Remaining %)?
A: 93.3 ± 0.7%

Q: What about the remaining at 0 h, 25 µM (in vitro) of the same compound?
A: 100%

Q: And the remaining at 10 min, 25 µM (in vitro)?
A: 99%

Q: What about the remaining at 20 min, 25 µM (in vitro) of the same compound?
A: 96%

Q: What about the remaining at 0.5 h, 25 µM (in vitro) of the same compound?
A: 94%

Q: What about the remaining at 1 h, 25 µM (in vitro) of the same compound?
A: 93%

Q: What about the remaining at 2 h, 25 µM (in vitro) of the same compound?
A: 91%

Q: What about the “10 min—Compound Remaining %” value ([1]; mouse (CD-1) liver microsomes, 25 μM, 10 min) of the same compound?
A: 98.2 ± 0.9%

Q: And the “20 min—Compound Remaining %” value ([1]; mouse (CD-1) liver microsomes, 25 μM, 20 min)?
A: 97.0 ± 1.0%

Q: What about the “30 min—Compound Remaining %” value ([1]; mouse (CD-1) liver microsomes, 25 μM, 30 min) of the same compound?
A: 95.0 ± 1.2%

Q: What about the “60 min—Compound Remaining %” value ([1]; mouse (CD-1) liver microsomes, 25 μM, 60 min) of the same compound?
A: 91.2 ± 1.8%

Q: What about the “120 min—Compound Remaining %” value ([1]; mouse (CD-1) liver microsomes, 25 μM, 120 min) of the same compound?
A: 89.2 ± 1.0%

Q: What about the “degraded after 2 h” value ([1]; mouse liver microsomes, 2 h) of the same compound?
A: 10.8%

Q: What about the “10 min - compound remaining %” value ([1]; single runs A and B (Table S3), 10 min, listed as MA191_B) of the same compound?
A: 97%

Q: And the “20 min - compound remaining %” value ([1]; single runs A and B (Table S3), 20 min, listed as MA191_B)?
A: 98%

Q: And the “60 min - compound remaining %” value ([1]; single runs A and B (Table S3), 60 min, listed as MA191_B)?
A: 89%

Q: What about the “120 min - compound remaining %” value ([1]; single runs A and B (Table S3), 120 min, listed as MA191_B) of the same compound?
A: 88%

Q: What about the “FLT3-ITD degradation” value (FLT3-ITD [2]) of the same compound?
A: eliminate FLT3-ITD

Q: What about the “cytotoxic effects” value (HEK293 cells) of the same compound?
A: no cytotoxic effects

Q: And the “% FLT3-ITD Binding at 1 µM” value (FLT3-ITD [3])?
A: 88 ± 2%

Q: And the “induction of late apoptosis” value (MOLM-13 cells)?
A: most potent inducers of late apoptosis
